Assays:
[1] = tested on: Mus musculus; experiment: Anxiolytic activity in ip dosed Harlan CD1 mouse assessed as inhibition of marble burying activity administered 15 to 30 mins prior to test; type: functional
[2] = Oral bioavailability in rat; type: ADME, organism-based; settings: in vivo
[3] = Oral bioavailability in cynomolgus monkey; type: ADME, organism-based, Macaca fascicularis; settings: in vivo
[4] = Ratio of drug level in brain to plasma in mouse at 10 mg/kg, po; type: ADME, organism-based; parameters: dose 10 mg/kg, route oral; settings: read-out: BPR
[5] = Plasma protein binding in human; type: ADME, cell-free; settings: read-out: PPB (converted)

bioavailability [2] [%] | bioavailability [3] [%] | Kp [4] | fraction unbound [5] | Compound | ED [1] [mg/kg]
– | – | – | – | Cc1cc(Oc2cnc(C)nc2)cc(C(=O)Nc2ccc(F)cn2)n1 | 10
39 | – | – | – | CCc1cccc(NC(=O)c2cc(Oc3cncnc3)cc(C)n2)n1 | 10
67 | 25 | 4.7 | – | Cc1cc(Oc2cncc(F)c2)cc(C(=O)Nc2ccc(F)cn2)n1 | 30
30 | 42 | 5.9 | 0.086 | Cc1cc(Oc2cncnc2)cc(C(=O)Nc2ccc(F)cn2)n1 | 10
